Source: patent US9750719B2, “Tetrazole compounds as calcium channel blockers” (CONVERGENCE PHARMACEUTICALS LIMITED, priority 2010, dated 2017)
Where a name gives a salt, the structure may show the parent alone.

biological target: T1, human Cav2.2 α (α1B) subunit, along with the human β3 and α2δ1 auxiliary subunits (Homo sapiens, UniProt Q00975); test: hCav2.2 assay, IonWorks planar array electrophysiology in stable HEK293 cell line; format: cell-based; details: inhibition by 50% of current elicited by the 1st depolarising pulse; HEK293 cells; read-out: tonic pIC50 (converted)
T1 construct: expressed in transfected cells
Method: Compounds as defined in the first or second aspect may be tested for in vitro biological activity in the hCav2.2 assay in accordance with the following studies:
Stable cell lines expressing the human Cav2.2 α (α1B) subunit, along with the human β3 and α2δ1 auxiliary subunits were created following sequential transfection and selection of human embryonic kidney (HEK293) cells. HEK293 cells were cultured in Dulbecco's modified Eagles media/F12 media (Invitrogen, Cat #041-95750V) containing 10% fetal bovine serum, with added L-glutamine (2 mM; Invitrogen, Cat #25030-024) and non-essential amino acids (5%; Invitrogen, Cat #11140-035). Initially HEK293 cells were transfected with two plasmid vectors for expression of the hCav2.2 α subunit (pCIN5-hCav2.2 which carries a neomycin resistance marker) and the hCav β3 subunit (pCIH-hCav β3 which carries a hygromycin resistance marker). Clonal cell lines were isolated following selection in media supplemented with 0.4 mg ml^−1 Geneticin G418 (Invitrogen, Cat #10131-027) and 0.1 mg ml^−1 hygromycin (Invitrogen, Cat #10687-010). These clonal cell lines were assessed for Cav2.2 α/β3-mediated current expression using the IonWorks planar array electrophysiology technology (described below). A clonal line was identified that gave a reasonable level of functional Cav2.2 α/β3 current expression. This cell line was transfected with a plasmid vector for expression of the human α2δ1 subunit (pCIP-α2δ1 which carries a puromycin resistance marker) and clonal cell lines isolated following selection in media containing 0.62 μg ml^−1 puromycin (Sigma, Cat #P-7255), in addition to 0.4 mg ml^−1 Geneticin G418 and 0.1 mg ml^−1 hygromycin. Several cell lines were identified that gave robust levels of Cav2.2 α/β3/α2δ1-mediated current expression and one of these was selected for compound profiling. Expression of all three subunits within this cell line was continuously maintained by the inclusion of G418 (0.4 mg ml^−1), hygromycin (0.1 mg ml^−1) and puromycin (0.62 μg ml^−1). Cells were maintained at 37° C. in a humidified environment containing 5% CO2 in air. Cells were liberated from the T175 culture flasks for passage and harvesting using TrpLE (Invitrogen, Cat #12604-013).
Cells were grown to 30-60% confluence in T175 flasks and maintained at 30° C. for 24 hrs prior to recording. Cells were lifted by removing the growth media, washing with Ca^2+ free PBS (Invitrogen, Cat #14190-094) and incubating with 3 ml of warmed (37° C.) TrpLE (Invitrogen, Cat #12604-013) for 6 minutes. Lifted cells were suspended in 10 ml of extracellular buffer. Cell suspension was then placed into a 15 ml tube and centrifuged for 2 minutes at 700 rpm. After centrifugation, the supernatant was removed and the cell pellet was resuspended in 4.5 ml of extracellular solution.
Currents were recorded at room temperature (21-23° C.) using the IonWorks planar array electrophysiology technology (Molecular Devices Corp.). Stimulation protocols and data acquisition were carried out using a microcomputer (Dell Pentium 4). In order to determine planar electrode hole resistances (Rp), a 10 mV, 160 ms potential difference was applied across each hole. These measurements were performed before cell addition. After cell addition a seal test was performed prior to antibiotic (amphotericin) circulation to achieve intracellular access. Leak subtraction was conducted in all experiments by applying a 160 ms hyperpolarizing (10 mV) prepulse 200 ms before the test pulses to measure leak conductance. Test pulses stepping from the holding potential (VH) of −90 mV to +10 mV were applied for 20 ms and repeated 10 times at a frequency of 10 Hz. In all experiments, the test pulse protocol was performed in the absence (pre-read) and presence (post-read) of a compound. Pre- and post-reads were separated by a compound addition followed by a 3-3.5 min incubation. […]

T1 sequence (Q00975 whole entry): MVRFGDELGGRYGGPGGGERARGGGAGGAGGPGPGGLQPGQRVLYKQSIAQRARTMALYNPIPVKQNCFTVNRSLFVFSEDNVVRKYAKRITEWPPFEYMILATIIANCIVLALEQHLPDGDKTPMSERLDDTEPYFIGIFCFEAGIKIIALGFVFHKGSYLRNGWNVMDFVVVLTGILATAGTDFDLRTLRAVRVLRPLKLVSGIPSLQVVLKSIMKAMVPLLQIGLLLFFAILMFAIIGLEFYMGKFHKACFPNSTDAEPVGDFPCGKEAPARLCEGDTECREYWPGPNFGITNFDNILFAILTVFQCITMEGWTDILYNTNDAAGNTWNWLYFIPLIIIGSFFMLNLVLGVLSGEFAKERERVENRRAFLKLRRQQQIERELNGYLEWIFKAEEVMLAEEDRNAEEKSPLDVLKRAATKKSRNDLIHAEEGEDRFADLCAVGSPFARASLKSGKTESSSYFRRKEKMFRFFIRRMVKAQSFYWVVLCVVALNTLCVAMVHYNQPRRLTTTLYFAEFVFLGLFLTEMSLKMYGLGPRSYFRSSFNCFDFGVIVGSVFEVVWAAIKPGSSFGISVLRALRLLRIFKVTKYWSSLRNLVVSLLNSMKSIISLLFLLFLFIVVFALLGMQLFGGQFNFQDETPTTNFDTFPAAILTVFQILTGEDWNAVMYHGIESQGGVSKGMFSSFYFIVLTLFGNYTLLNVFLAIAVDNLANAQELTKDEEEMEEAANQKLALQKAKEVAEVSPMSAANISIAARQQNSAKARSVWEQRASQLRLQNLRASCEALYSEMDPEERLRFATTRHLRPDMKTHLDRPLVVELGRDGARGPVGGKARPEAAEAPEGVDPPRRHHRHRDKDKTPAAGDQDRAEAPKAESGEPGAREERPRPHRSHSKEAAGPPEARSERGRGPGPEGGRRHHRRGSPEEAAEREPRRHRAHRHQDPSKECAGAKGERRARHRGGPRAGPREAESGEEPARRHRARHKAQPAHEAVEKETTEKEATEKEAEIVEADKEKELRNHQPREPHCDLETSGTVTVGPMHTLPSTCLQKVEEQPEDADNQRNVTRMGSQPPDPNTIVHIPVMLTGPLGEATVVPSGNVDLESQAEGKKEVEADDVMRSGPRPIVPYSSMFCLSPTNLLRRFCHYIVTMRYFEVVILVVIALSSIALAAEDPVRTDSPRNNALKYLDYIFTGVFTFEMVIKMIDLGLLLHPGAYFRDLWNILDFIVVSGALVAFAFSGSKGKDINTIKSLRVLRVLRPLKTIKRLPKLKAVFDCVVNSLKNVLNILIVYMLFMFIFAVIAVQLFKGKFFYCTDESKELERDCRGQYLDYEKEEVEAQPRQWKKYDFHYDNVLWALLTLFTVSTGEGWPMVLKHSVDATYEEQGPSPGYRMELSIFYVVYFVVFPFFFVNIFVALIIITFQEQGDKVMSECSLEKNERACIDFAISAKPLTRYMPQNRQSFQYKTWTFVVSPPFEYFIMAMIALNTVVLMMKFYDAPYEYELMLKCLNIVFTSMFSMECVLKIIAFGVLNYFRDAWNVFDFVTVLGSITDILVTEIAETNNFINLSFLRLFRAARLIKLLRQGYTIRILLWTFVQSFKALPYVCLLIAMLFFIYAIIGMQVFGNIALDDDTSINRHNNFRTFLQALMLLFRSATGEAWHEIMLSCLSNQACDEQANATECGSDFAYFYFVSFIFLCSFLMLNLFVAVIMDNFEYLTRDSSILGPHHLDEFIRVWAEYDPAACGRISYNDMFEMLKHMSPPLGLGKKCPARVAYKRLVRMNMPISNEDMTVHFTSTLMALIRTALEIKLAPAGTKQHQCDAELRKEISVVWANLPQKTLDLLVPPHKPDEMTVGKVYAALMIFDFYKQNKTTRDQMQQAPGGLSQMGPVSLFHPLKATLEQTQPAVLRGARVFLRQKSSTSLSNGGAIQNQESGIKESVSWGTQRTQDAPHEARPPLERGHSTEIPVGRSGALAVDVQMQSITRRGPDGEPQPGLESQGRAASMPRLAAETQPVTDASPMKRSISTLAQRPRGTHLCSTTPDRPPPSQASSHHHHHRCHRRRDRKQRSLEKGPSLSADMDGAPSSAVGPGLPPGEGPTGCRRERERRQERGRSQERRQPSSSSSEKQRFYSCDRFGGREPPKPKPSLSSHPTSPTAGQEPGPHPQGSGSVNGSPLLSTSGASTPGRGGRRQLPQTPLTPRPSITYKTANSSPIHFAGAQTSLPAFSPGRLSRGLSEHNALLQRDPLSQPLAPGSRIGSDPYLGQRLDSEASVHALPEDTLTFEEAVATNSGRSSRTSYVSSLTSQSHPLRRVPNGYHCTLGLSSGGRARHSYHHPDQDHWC
T1 sequence (P54284 whole entry partner): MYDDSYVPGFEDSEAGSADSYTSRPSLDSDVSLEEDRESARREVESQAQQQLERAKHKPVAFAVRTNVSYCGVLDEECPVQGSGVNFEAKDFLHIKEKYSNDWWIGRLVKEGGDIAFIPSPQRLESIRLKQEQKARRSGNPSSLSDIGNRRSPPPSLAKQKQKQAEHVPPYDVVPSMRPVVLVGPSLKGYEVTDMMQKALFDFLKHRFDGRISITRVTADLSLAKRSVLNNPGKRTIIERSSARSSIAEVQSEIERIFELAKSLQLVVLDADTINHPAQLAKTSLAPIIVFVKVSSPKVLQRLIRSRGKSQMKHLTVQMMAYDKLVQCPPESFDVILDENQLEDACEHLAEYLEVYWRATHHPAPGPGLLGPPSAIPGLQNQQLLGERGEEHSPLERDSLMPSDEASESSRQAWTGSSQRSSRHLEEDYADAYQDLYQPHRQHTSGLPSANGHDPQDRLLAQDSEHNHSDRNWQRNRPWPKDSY
T1 sequence (P54289 25-946 partner limits assumed): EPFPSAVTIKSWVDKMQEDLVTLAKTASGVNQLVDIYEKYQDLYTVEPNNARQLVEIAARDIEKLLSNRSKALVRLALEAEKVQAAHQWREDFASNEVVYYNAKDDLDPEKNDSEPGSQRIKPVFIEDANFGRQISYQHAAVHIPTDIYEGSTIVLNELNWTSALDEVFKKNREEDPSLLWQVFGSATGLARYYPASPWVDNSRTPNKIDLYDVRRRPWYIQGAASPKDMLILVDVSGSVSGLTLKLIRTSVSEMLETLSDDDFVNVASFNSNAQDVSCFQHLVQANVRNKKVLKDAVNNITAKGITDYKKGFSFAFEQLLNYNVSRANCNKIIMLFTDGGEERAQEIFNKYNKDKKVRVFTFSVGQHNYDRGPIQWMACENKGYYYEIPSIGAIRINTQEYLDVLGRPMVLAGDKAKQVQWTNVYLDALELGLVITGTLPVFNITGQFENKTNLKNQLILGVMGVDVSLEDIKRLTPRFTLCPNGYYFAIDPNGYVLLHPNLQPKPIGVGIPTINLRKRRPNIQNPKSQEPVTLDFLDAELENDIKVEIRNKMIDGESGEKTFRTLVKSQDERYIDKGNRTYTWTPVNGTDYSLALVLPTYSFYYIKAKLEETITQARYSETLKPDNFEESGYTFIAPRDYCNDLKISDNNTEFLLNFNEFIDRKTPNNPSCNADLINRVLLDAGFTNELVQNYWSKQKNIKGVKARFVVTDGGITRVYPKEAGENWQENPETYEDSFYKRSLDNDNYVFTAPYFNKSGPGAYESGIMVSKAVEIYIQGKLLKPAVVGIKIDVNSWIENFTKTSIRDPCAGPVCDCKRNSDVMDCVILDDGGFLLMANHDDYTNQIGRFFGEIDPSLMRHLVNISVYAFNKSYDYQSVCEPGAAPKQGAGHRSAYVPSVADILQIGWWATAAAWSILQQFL
T1 sequence (P54289 947-1103 partner limits assumed): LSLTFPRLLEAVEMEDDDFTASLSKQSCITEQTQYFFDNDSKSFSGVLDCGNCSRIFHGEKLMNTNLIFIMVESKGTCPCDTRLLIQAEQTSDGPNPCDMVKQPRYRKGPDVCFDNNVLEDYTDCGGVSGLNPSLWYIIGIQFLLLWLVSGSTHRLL

Structure (SMILES)	IC50 [µM]
O=S1(=O)CCC2CN(Cc3nnnn3-c3ccc(C(F)(F)F)cc3)CCN21 (centres unmarked) [Compound 78, 5-({1-[4-(Trifluoromethyl)phenyl]-1H-tetrazol-5-yl}methyl)hexahydro-2H-isothiazole[2,3-a]pyrazine 1,1-dioxide]	≤ 31.6
O=S1(=O)CCC2CN(Cc3nnnn3-c3cccc(C(F)(F)F)c3)CCN21 (centres unmarked) [Compound 79, 5-({1-[3-(Trifluoromethyl)phenyl]-1H-tetrazol-5-yl}methyl)hexahydro-2H-isothiazolo[2,3-a]pyrazine 1,1-dioxide]	≤ 31.6
C[C@@H]1C(=O)N(C)CCN1Cc1nnnn1-c1ccc(C(F)(F)F)cc1 [Compound 89, (3R)-1,3-Dimethyl-4-({1-[4-(trifluoromethyl)phenyl]-1H-tetrazol-5-yl}methyl)-2-piperazinone[]]	≤ 10
CC(C)N1CCN(Cc2nnnn2-c2ccc(C(F)(F)F)cc2)[C@H](C)C1=O [Compound 90, (3R)-3-Methyl-1-(1-methylethyl)-4-({1-[4-(trifluoromethyl)phenyl]-1H-tetrazol-5-yl}methyl)-2-piperazinone]	≤ 10
CCN1CCN(Cc2nnnn2-c2cccc(C(F)(F)F)c2)[C@H](C)C1 [Compound 92, (2R)-4-Ethyl-2-methyl,-1-({1-[3-(trifluoromethyl)phenyl]-1H-tetrazol-5-yl}methyl)piperazine hydrochloride]	≤ 31.6
CC(C)N1CCN(Cc2nnnn2-c2cccc(C(F)(F)F)c2)[C@H](C)C1 [Compound 94, (2R)-2-Methyl-4-(1-methylethyl)-1-({1-[3-(trifluoromethyl)phenyl]-1H-tetrazol-5-yl}methyl)piperazine hydrochloride]	≤ 31.6
CC(C)N1CCN(Cc2nnnn2-c2ccc(C(F)(F)F)cc2)CC1 [Compound 96, 1-(1-Methylethyl)-4-({1-[4-(trifluoromethyl)phenyl]-1H-tetrazol-5-yl}methyl)piperazine hydrochloride]	≤ 31.6
CN1C[C@@H]2C[C@H]1CN2Cc1nnnn1-c1ccc(C(F)(F)F)cc1 [Compound 98, (1S,4S)-2-Methyl-5-({1-[4-(trifluoromethyl)phenyl]-1H-tetrazol-5-yl}methyl)-2,5-diazabicyclo[2.2.1]heptane hydrochloride]	≤ 31.6
N#Cc1ccc(-n2nnnc2CN2CCNCC2)cc1C(F)(F)F [Compound 101, 4-[5-(1-piperazinylmethyl)-1H-tetrazol-1-yl]-2-(trifluoromethyl)benzonitrile]	≤ 10
CC(=O)N1CCN(Cc2nnnn2-c2ccc(C#N)c(C(F)(F)F)c2)CC1 [Compound 102, 4-{5-[(4-acetyl-1-piperazinyl)methyl]-1H-tetrazol-1-yl}-2-(trifluoromethyl)benzonitrile]	≤ 3.16
N#Cc1ccc(-n2nnnc2CN2[C@@H]3CC[C@H]2COC3)cc1C(F)(F)F [Compound 103, 4-[5-(3-oxa-8-azabicyclo[3.2.1]oct-8-ylmethyl)-1H-tetrazol-1-yl]-2-(trifluoromethyl)benzonitrile hydrochloride]	≤ 10
CCCS(=O)(=O)N1CCN(Cc2nnnn2-c2ccc(C#N)c(C(F)(F)F)c2)CC1 [Compound 106, 4-(5-{[4-(Propylsulfonyl)-1-piperazinyl]methyl}-1H-tetrazol-1-yl)-2-(trifluoromethyl)benzonitrile]	≤ 3.16
C[C@@H]1CN(S(C)(=O)=O)C[C@H](C)N1Cc1nnnn1-c1ccc(C#N)c(C(F)(F)F)c1 [Compound 107, 4-(5-{[cis-2,6-Dimethyl-4-(methylsulfonyl)-1-piperazinyl]methyl}-1H-tetrazol-1-yl)-2-(trifluoromethyl)benzonitrile]	≤ 3.16
FC(F)(F)c1cc(-n2nnnc2CN2C[C@@H]3C[C@H]2CO3)ccc1Cl [Compound 110, (1S,4S)-5-({1-[4-chloro-3-(trifluoromethyl)phenyl]-1H-tetrazol-5-yl}methyl)-2-oxa-5-azabicyclo[2.2.1]heptane hydrochloride]	≤ 10
FC(F)(F)c1cc(-n2nnnc2CN2CCOCC2)ccc1Cl [Compound 111, 4-({1-[4-chloro-3-(trifluoromethyl)phenyl]-1H-tetrazol-5-yl}methyl)morpholine]	≤ 3.16
CCS(=O)(=O)N1CCN(Cc2nnnn2-c2ccc(C#N)cc2)CC1 [Compound 118, 4-(5-{[4-(ethylsulfonyl)-1-piperazinyl]methyl}-1H-tetrazol-1-yl)benzonitrile]	≤ 31.6
CCS(=O)(=O)N1CCN(Cc2nnnn2-c2ccc(C#N)c(C(F)(F)F)c2)CC1 [Compound 121, 4-(5-{[4-(ethylsulfonyl)-1-piperazinyl]methyl}-1H-tetrazol-1-yl)-2-(trifluoromethyl)benzonitrile]	≤ 3.16
CC(C)S(=O)(=O)N1CCN(Cc2nnnn2-c2ccc(C#N)c(C(F)(F)F)c2)CC1 [Compound 122, 4-[5-({4-[(1-methylethyl)sulfonyl]-1-piperazinyl}methyl)-1H-tetrazol-1-yl]-2-(trifluoromethyl)benzonitrile]	≤ 3.16
FS(F)(F)(F)(F)c1ccc(-n2nnnc2CN2C[C@@H]3C[C@H]2CO3)cc1 [Compound 127, (1S,4S)-5-({1-[4-(pentafluoro-λ^6-sulfanyl)phenyl]-1H-tetrazol-5-yl}methyl)-2-oxa-5-azabicyclo[2.2.1]heptane]	≤ 31.6
Cc1c(-n2nnnc2CN2C[C@@H]3C[C@H]2CO3)ccc(C#N)c1C(F)(F)F [Compound 129, 3-methyl-4-{5-[(1S,4S)-2-oxa-5-azabicyclo[2.2.1]hept-5-ylmethyl]-1H-tetrazol-1-yl}-2-(trifluoromethyl)bbenzonitrile hydrochloride]	≤ 31.6
CCC(=O)N1CCN(Cc2nnnn2-c2ccc(C#N)c(C(F)(F)F)c2)CC1 [Compound 145, 4-{5-[(4-propanoyl-1-piperazinyl)methyl]-1H-tetrazol-1-yl}-2-(trifluoromethyl)benzonitrile]	≤ 3.16
CC(C)C(=O)N1CCN(Cc2nnnn2-c2ccc(C#N)c(C(F)(F)F)c2)CC1 [Compound 146, 4-(5-{[4-(2-methylpropanoyl)-1-piperazinyl]methyl}-1H-tetrazol-1-yl)-2-(trifluoromethyl)benzonitrile]	≤ 3.16
CC(C)N1CCC2(CCN(Cc3nnnn3-c3ccc(C#N)c(C(F)(F)F)c3)CC2)C1 [Compound 147, 4-(5-{[2-(1-methylethyl)-2,8-diazaspiro[4.5]dec-8-yl]methyl}-1H-tetrazol-1-yl)-2-(trifluoromethyl)benzonitrile dihydrochloride]	≤ 3.16
